According to patent US10004716B2, “Therapeutic/ preventive agent containing coumarin derivative as active ingredient” (NIPPON ZOKI PHARMACEUTICAL CO., LTD., priority 2014, dated 2018):

Tests used:
[1] = system: IL-6 gene expression; assay: Suppression of LPS-induced gene expression of inflammation-related factors in THP-1 cells (real time PCR): IL-6; type: cell-based, human; details: PMA-differentiated THP-1 cells; test substance 12.5 μmol/mL 2 hours, then LPS 10 mg/mL 3 hours; n = 3
Procedure: THP-1 cells were subjected to induction of differentiation for 72 hours with PMA (phorbol 12-myristate 13-acetate; 100 nM/L) and then the THP-1 cells (5×10^5 cells/mL) were incubated for 24 hours in a RPMI 1640+10% FCS culture solution in a 24-well plate. After that, a test substance was added so as to make the final concentration 12.5 μmol/mL followed by conducting the preincubation for 2 hours, a lipopolysaccharide (LPS) was then added thereto so as to make the final concentration 10 mg/mL and, after 3 hours, the cells were recovered.
QIAzol Lysis Reagent (QIAGEN) (1 mL) was added to the above to suspend, 200 μL of chloroform was added thereto followed by mixing and centrifugation (at 4° C. and 1500 rpm) was conducted whereby the supernatant liquid was recovered. Total RNA was extracted and purified by treating the supernatant liquid with QIACube (QIAGEN) and RNeasy Micro Kit (QIAGEN). cDNA was prepared from the total RNA using Omniscript RT kit (QIAGEN) and Oligo(dT)12-18 Primer (Invitrogen).
Gene expression level of the inflammation-related factors [IL-1β, IL-6 and monocyte chemotactic protein (MCP)-1] was measured by a conventional real time PCR method using a fluorescent dye SYBR GREEN I (Roche Diagnostics) by Light Cycler LC 480 (the same) using cDNA synthesized from the total RNA extracted in the above (2). A calibration curve was prepared by diluting the PCR product quantified by PicoGreen dsDNA Quantitation kit (Molecular probes) (a DNA quantitation kit) to an extent of 10^2˜10^7 copies/μL. From each of the resulting quantified values, copy numbers per 10000 copies of GAPDH gene being an internal standard were calculated.

[2] = system: NF-κB; assay: Suppressive action to NF-κB activation (luciferase reporter, HEK293T cells, TNF-α); type: cell-based, human; details: HEK293T cells with NF-κB reporter; test substance 25 μml/mL 1 hour, then TNF-α 10 ng/mL 5 hours; stimulated TNF-α = 100
Procedure: A preparation solution containing pGL4.32 [luc2P/NF-κB-RE/Hygrol] (Promega) which is an NF-κB reporter vector, pGL4.74 [hRluc/TK] (Promega) which is a control vector and Lipofectamine LTX (Life Technologies) which is a gene transfer agent was added to human embryo kidney cells (HEK293T cells) sown onto a […] whereupon there were prepared the cells which transiently express a reporter protein.
After 24 hours from the gene transfer, transient expression cells were peeled off by treating with trypsin, sown on a poly-lysine coated white 96-well plate and incubated for one night. The test substance was added to as to make its final concentration 25 μml/mL and, after pre-incubating for 1 hour, TNF-α was added thereto so as to make its final concentration 10 ng/mL followed by incubating for 5 hours more. The cells were dissolved and the activities of a firefly luciferase and a renilla luciferase were measured. Rate of the luminescent intensity by addition of each drug to the luminescent intensity by stimulation with TNF-α were calculated.

[3] = system: rats suffering from degenerative intervertebral disk induced by nicotine; assay: Duration of walking time (rotor rod) in rats with degenerative intervertebral disk induced by nicotine; type: in vivo; details: SD male rats, after 48 days from initiation of exposure to nicotine, 300 seconds maximum, per os once daily, n = 8, normal control 274.1, diseased control 147.7
Procedure: After 16 days from the purchase, SD male rats were organized into normal control group and nicotine group in terms of body weight, 50% reaction threshold value (measuring method will be mentioned later) and duration of walking time and, after 17 days from the purchase, exposure to nicotine was started for a nicotine group. Nicotine was prepared into 344.8 mg/mL using a physiological saline solution, filled into an osmotic pressure pump and retained under the skin of waist of rats. After 21 days from the retaining, an osmotic pressure pump into which a freshly-prepared nicotine solution was filled was retained under the skin of rats of five groups except the normal control group. Nicotine was prepared into […] using a physiological saline solution, filled into an osmotic pressure pump and retained under the skin of waist of the SD male rats.
After 13 days from exposure to nicotine, measurement of 50% reaction threshold value, duration of walking time and body weight were measured and a group organization was done into 6 groups of normal control group, diseased control group, compound 57-administered group, compound 58-administered group, compound 60-administered group and compound 68-administered group.
A test substance was suspended using 0.5 w/v % CMC and, together with stirring, 10 mL/kg of the suspension was repeatedly administered per os once daily after 14 to 52 or 53 days from the initiation of exposure to nicotine using an oral sonde for rats. To the normal control group and the diseased control group, 0.5 w/v % CMC was repeatedly administered per os in the same administration schedule and administration method.
Before the exposure to nicotine and after 48 days from the initiation of the exposure to nicotine, duration of waling time of rats was measured using a rotor rod for both rats and mice. A rotating speed was adjusted in such a manner that, when rotation was started in constant acceleration from the state where a rotor stopped, it reached 15 rotations per minute after 300 seconds. A rat was placed on a rotor which was in a stopped state, then the rotor was rotated, the time until the rat dropped was measured (300 seconds in maximum) and a mean value of three runs was determined.

[4] = system: CTGF gene expression; assay: Evaluation II: TGF-β-induced gene expression of fibrosis-related factors in NHLF cells: CTGF; type: cell-based, human; details: 30 μM test substance, 200 μg/mL pirfenidone, 30 μM DEX, 1.0 μM TPCA-1 or 10 μM FP 2 hours, then TGF-β 0.5 ng/mL 4 hours, n = 4
Procedure: (§1) NHLF cells were sown so as to make their amount 5×10^4 cells/well to each well of a 12-well plate and incubated to an extent of 80% confluent in a medium where fibroblast growth medium 2 supplement mix (FGM-2 SingleQuots, Lonza) was added to a fibroblast basal medium (FBM, Lonza). After that, incubation was conducted for 2 hours in a DMEM medium containing 30 μM of a test substance, 200 μg/mL of pirfenidone, 30 μM of dexamethasone (DEX), 1.0 μM of TPCA-1 or 10 μM of fluticasone propionate (FP) and, after TGF-β was added thereto so as to make its final concentration 0.5 ng/mL, incubation was carried out for 4 hours more.
(§2) With regard to the extraction of RNA from NHLF cells, the synthesis of cDNA from RNA and the action of the test substance to gene expression of fibrosis-related factors [CFGF, TGF-β1, fibronectin and Col 1], the tests were carried out in the same manners as in (2) and (3) of the above Test Example 3.

[5] = system: TGF-β1 gene expression; assay: Evaluation II: TGF-β-induced gene expression of fibrosis-related factors in NHLF cells: TGF-β1; type: cell-based, human; details: 30 μM test substance, 200 μg/mL pirfenidone, 30 μM DEX, 1.0 μM TPCA-1 or 10 μM FP 2 hours, then TGF-β 0.5 ng/mL 4 hours, n = 4
Procedure: as §1, §2

[6] = system: fibronectin gene expression; assay: Evaluation II: TGF-β-induced gene expression of fibrosis-related factors in NHLF cells: fibronectin; type: cell-based, human; details: 30 μM test substance, 200 μg/mL pirfenidone, 30 μM DEX, 1.0 μM TPCA-1 or 10 μM FP 2 hours, then TGF-β 0.5 ng/mL 4 hours, n = 4
Procedure: as §1, §2

[7] = system: Col 1 gene expression; assay: Evaluation II: TGF-β-induced gene expression of fibrosis-related factors in NHLF cells: Col 1; type: cell-based, human; details: 30 μM test substance, 200 μg/mL pirfenidone, 30 μM DEX, 1.0 μM TPCA-1 or 10 μM FP 2 hours, then TGF-β 0.5 ng/mL 4 hours, n = 4
Procedure: as §1, §2

Structure (SMILES)	Copy Numbers per 10000 Copies of GAPDH IL-6 [1]	Luminescent Intensity to Stimulated TNF-α (%) [2] [%]	Duration of Walking Time [3] [s]	Copy Numbers per 10000 Copies of GAPDH CTGF [4]	Copy Numbers per 10000 Copies of GAPDH TGF-β1 [5]	Copy Numbers per 10000 Copies of GAPDH Fibronectin [6]	Copy Numbers per 10000 Copies of GAPDH Col 1 [7]
O=c1oc2c(OS(=O)(=O)c3ccc(C(F)(F)F)cc3)cccc2cc1NS(=O)(=O)c1cccc(C(F)(F)F)c1 [Compound 57, 2-Oxo-3-[[3-(trifluoromethyl)phenyl]sulfonylamino]-chromen-8-yl 4-(trifluoromethyl)benzenesulfonate]	49.0 copies per 10000 copies of GAP	7.5	187.3	–	–	–	–
O=c1oc2c(OS(=O)(=O)c3cccc(Br)c3)cccc2cc1NS(=O)(=O)c1cccc(C(F)(F)F)c1 [Compound 60, 2-Oxo-3-[[3-(trifluoromethyl)phenyl]sulfonylamino]-chromen-8-yl 3-bromobenzenesulfonate]	275.2 copies per 10000 copies of GAP	15.7	208.4	119.0 copies per 10000 copies of GAP	707.1 copies per 10000 copies of GAP	1446.2 copies per 10000 copies of GAP	650.6 copies per 10000 copies of GAP
O=c1oc2c(OS(=O)(=O)c3cccc(C(F)(F)F)c3)cccc2cc1NS(=O)(=O)c1ccc(C(F)(F)F)cc1 [Compound 68, 2-Oxo-3-[[4-(trifluoromethyl)phenyl]sulfonylamino]-chromen-8-yl 3-(trifluoromethyl)benzenesulfonate]	95.7 copies per 10000 copies of GAP	16.1	189.2	–	–	–	–
O=c1oc2c(OS(=O)(=O)c3ccc(C(F)(F)F)cc3)cccc2cc1NS(=O)(=O)c1cccc(Br)c1 [Compound 58, 3-[(3-Bromophenyl)sulfonylamino]-2-oxochromen-8-yl 4-(trifluoromethyl)benzenesulfonate]	93.2 copies per 10000 copies of GAP	14.5	210.9	115.8 copies per 10000 copies of GAP	704.5 copies per 10000 copies of GAP	1827.5 copies per 10000 copies of GAP	525.6 copies per 10000 copies of GAP
